From publication PMC4113817, “New Hippolide Derivatives with Protein Tyrosine Phosphatase 1B Inhibitory Activity from the Marine Sponge Hippospongia lachne” (Marine Drugs, 2014) come the findings set out here.

pIC50: −log10 of the molar value.

The test system of one assay is HCT-116 cell line. Put plainly: cytotoxicity against HCT-116 cancer cell line. The assay is classed as cell-based. The note with it: Homo sapiens.
In turn, `CC(C)=CCCC(C)=CCCC(C)=CCCC1=CCC2OC1NC=C2C=O` (stereo not drawn) [Compound 1] showed a negative logarithm of the IC50 (pIC50) of 4.94.

A further assay deals with T1, recombinant PTP1B (catalytic domain) (Homo sapiens, UniProt P18031).
T1 construct: The enzymatic activities of the PTP1B catalytic domain were determined at 30 °C by monitoring the hydrolysis of pNPP
T1 sequence (P18031 3-277 limits assumed): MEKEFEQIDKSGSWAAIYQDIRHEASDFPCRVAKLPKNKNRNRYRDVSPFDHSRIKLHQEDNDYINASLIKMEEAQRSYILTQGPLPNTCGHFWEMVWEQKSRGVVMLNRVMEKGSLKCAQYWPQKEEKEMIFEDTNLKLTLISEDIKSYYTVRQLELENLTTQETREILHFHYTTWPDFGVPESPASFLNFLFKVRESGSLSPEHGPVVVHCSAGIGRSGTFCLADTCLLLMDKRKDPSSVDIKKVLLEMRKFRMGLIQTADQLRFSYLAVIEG
Kind of assay: PTP1B inhibitory assay (pNPP hydrolysis). The assay is classed as biochemical. The following applies: in vitro; pNPP substrate, 30 °C, pH 6.5. How it is done: The enzymatic activities of the PTP1B catalytic domain were determined at 30 °C by monitoring the hydrolysis of pNPP. Dephosphorylation of pNPP generates product pNP, which was monitored at an absorbance of 405 nm. In a typical 100 μL assay mixture containing 50 mmol/L 3-[N-morpholino] propanesulfonic acid (MOPs), pH 6.5, 2 mmol/L pNPP, and 30 nmol/L recombinant PTP1B, activities were continuously monitored and the initial rate of the hydrolysis was determined using the early linear region of the enzymatic reaction kinetic curve.
`CC(C)=CCCC(C)=CCCC(C)=CCCC1=CCC2OC1NC=C2C=O` (stereo not drawn) [Compound 1]: the pIC50 is 5.28.

As for `CC(C)=CCCC(C)=CCCC(C)=CCCC1=CCC(O)C2(C(N)=O)CC(=O)OC12` (stereo not drawn) [Compound 2], the negative logarithm of the IC50 (pIC50) was less than 4.30.

For the molecule `CC(C)=CCCC(C)=CCCC(C)=CCCC1=CCC(O)C2(C(=O)O)CC(=O)NC12` (stereo not drawn) [Compound 3], the negative-log IC50 (pIC50) was 4.48.

As to `CC(C)=CCC/C(C)=C/CC/C(C)=C/CCc1ccc(O)c(CC(=O)O)c1` [Compound 4], the negative logarithm of the IC50 (pIC50) was 4.85.

For the molecule `CC(C)=CCC/C(C)=C/CC/C(C)=C/CC\C(C=O)=C/C=C/C(C=O)=C/N` [Compound 5], the pIC50 is 5.06.
